Experiments:
[1] = Effect on Wnt signaling pathway in human SW480 cells harbouring TCF/LEF luciferase reporter gene and SP5-Luc reporter gene incubated for 36 to 48 hrs by luminescence assay; type: cell-based
[2] = biological target: Dual specificity tyrosine-phosphorylation-regulated kinase 1A (Homo sapiens, UniProt Q13627); assay: Inhibition of recombinant DYRK1A (unknown origin) using Ser/Thr 18 peptide as substrate incubated for 1 hr in presence of ATP by FRET assay
[3] = Inhibition of IL1-beta induced MMP3 expression levels in human chondrocytes assessed as MMP3 levels incubated for 2hrs followed by IL1-beta stimulation and measured after overnight incubation by LANCE assay; type: functional, cell-based; settings: Chondrocyte
[4] = Induction of chondrogenesis in human MSC assessed as maximum activity at 10 nM incubated for 6 days by rhodamine B and Nile red staining based imaging analysis relative to control; type: functional; settings: BMMSC, 144 h, time 6 day

Structure (SMILES) | EC50 [1] | EC50 [2] | EC50 [3] | Emax at 0.01 µM [4]
O=C(Nc1ccc(OC(F)F)cc1)c1n[nH]c2ccc(-c3cnc4n3CCNC4)cc12 | 684 nM | 16 nM | 13 nM | –
CCN(C)Cc1cncc(-c2cnc3[nH]nc(-c4nc5c(-c6cccc(F)c6)cncc5[nH]4)c3c2)c1 | 643 nM | 8 nM | 0.8 nM | –
Fc1cccc(-c2cncc3[nH]c(-c4n[nH]c5cnc(-c6cncc(OC7CCNCC7)c6)cc45)nc23)c1 | > 10000 nM | 5 nM | 1710 nM | –
CCNCc1cncc(-c2cnc3[nH]nc(-c4nc5c(-c6cccc(F)c6)cccc5[nH]4)c3c2)c1 | 40.9 nM | 48 nM | – | 98.7%
O=C(Nc1cccnc1)c1n[nH]c2cnc(-c3cncc(CN4CCCCC4)c3)cc12 | 848 nM | 4 nM | 138 nM | –
O=C(CC1CCNCC1)Nc1cncc(-c2ccc3[nH]nc(-c4nc5c(-c6ccsc6)nccc5[nH]4)c3n2)c1 | > 10000 nM | 10 nM | 3000 nM | –
Cn1ncc(-c2ccc3cnc(NC(=O)[C@H]4CC[C@H](CO)CC4)cc3c2)c1CN1CCCCC1 | 594 nM | 3 nM | 3000 nM | –
O=C(Nc1cncc(-c2cc3c(-c4nc5c(-c6cccs6)nccc5[nH]4)n[nH]c3cn2)c1)C1CC1 | 22.2 nM | 35 nM | – | 68.3%
O=C(Nc1ccc(CN2CCCC2)cc1)c1n[nH]c2ccc(-c3cccnc3F)cc12 | 196 nM | 1 nM | 3000 nM | –
Nc1ncc(NC(=O)c2n[nH]c3ccc(-c4cncc(CN5CCCCC5)c4)cc23)cn1 | 30 nM | 1 nM | 180 nM | –
O=C(Nc1ccc(N2CCCC2)nc1)c1n[nH]c2ccc(-c3cncc(CN4CCC4)c3)cc12 | > 10000 nM | 3 nM | 3000 nM | –
Cc1n[nH]c2ccc(-c3cncc(N4CCC[C@H](N)C4)n3)cc12 | 1430 nM | 50 nM | 3000 nM | –
Cc1n[nH]c2ccc(-c3cncc(N4CCC(O)CC4)n3)cc12 | 1900 nM | 22 nM | 47.8 nM | –
CS(=O)(=O)c1ccc(NC(=O)c2n[nH]c3ccc(-c4cncc(CN5CCCCC5)c4)cc23)cn1 | 27 nM | 1 nM | 5.5 nM | –
FC1(F)CCN(Cc2cncc(-c3cnc4[nH]nc(-c5nc6c(-c7ccoc7)nccc6[nH]5)c4c3)c2)C1 | 162 nM | 10 nM | 0.1 nM | –
Cc1n[nH]c2ccc(-c3cc(OC[C@H](N)Cc4ccccc4)cnn3)cc12 | 1150 nM | 32 nM | 3000 nM | –
O=C(Nc1cc2cc(-c3cnn4c3CCNC4)ccc2cn1)c1ccc(OC(F)F)cc1 | 375 nM | 6 nM | 1920 nM | –
Cc1ncc(-c2ccc3cnc(NC(=O)C4(F)CC4)cc3c2)n1C | 2210 nM | 6 nM | 18.7 nM | –
CN1CCC(Oc2ncc(NC(=O)c3n[nH]c4cc(F)c(-c5cnn(C)c5)cc34)cc2F)CC1 | 1150 nM | 1 nM | 12.6 nM | –
Cc1n[nH]c2ccc(-c3cncc(OC[C@@H]4Cc5ccccc5CN4)n3)cc12 | 2810 nM | 56 nM | 3000 nM | –
Cc1cc(-c2ccc3[nH]nc(C(=O)Nc4ccc(OC5CCN(C)CC5)cc4)c3c2)sn1 | 645 nM | 3 nM | 44.2 nM | –

Structure (SMILES) | EC50 [1] | EC50 [2] | EC50 [3] | Emax at 0.01 µM [4]
CC(C)n1cc(C(=O)Nc2cc3cc(-c4cncc(NC5CCN(C)CC5)n4)ncc3cn2)cn1 | 164 nM | 1 nM | 3000 nM | –
CN1CCC(Oc2ccc(NC(=O)c3n[nH]cc3/C=C/c3cccnc3)cn2)CC1 | 964 nM | 1 nM | 3000 nM | –
CN1CCC(Oc2ccc(NC(=O)c3n[nH]c4ccc(-c5ccc(N)nc5)cc34)cc2)CC1 | 477 nM | 4 nM | 4.9 nM | –
O=C(Nc1ccc(OCCN2CCCC2)cc1)c1n[nH]cc1/C=C/c1cccnc1 | 1850 nM | 4 nM | 3000 nM | –
O=C(Nc1cccnc1)c1n[nH]c2ncc(-c3cccnc3)cc12 | 795 nM | 6 nM | 2.2 nM | –
O=C(Nc1ccc(N2CCNCC2)nc1)c1n[nH]cc1/C=C/c1cccnc1 | 1650 nM | 1 nM | 0.2 nM | –
O=C(Nc1cccnc1)c1n[nH]c2ccc(-c3cncc(CN4CC(CO)(CO)C4)c3)cc12 | > 10000 nM | 2 nM | 69.7 nM | –
O=C(Nc1cnccn1)c1n[nH]c2ccc(-c3cncc(CN4CCCCCC4)c3)cc12 | 430 nM | 2 nM | 3000 nM | –
Cn1cc(-c2cc3c(C(=O)Nc4ccc(OCCN5CCCC5)cc4)n[nH]c3cc2F)cn1 | 315 nM | 1 nM | 3000 nM | –
Cc1n[nH]c2ccc(-c3cncc(OCC4(F)CNC4)n3)cc12 | 3250 nM | 25 nM | 35 nM | –
CN1CCC(n2cc(C(=O)Nc3cc4cc(-c5cncc6[nH]ccc56)ccc4cn3)cn2)CC1 | 13.3 nM | 3 nM | 40.1 nM | –
CC#CC(=O)Nc1cc2cc(-c3cnn(C)c3)ccc2cn1 | 513 nM | 6 nM | 32.8 nM | –
COc1cncc(C(=O)Nc2c[nH]nc2C(=O)Nc2ccc(CN(C)C)cc2)c1 | 123 nM | 10 nM | 3000 nM | –
Cn1cc(-c2cc3c(C(=O)Nc4ccc5c(c4)CNC5)n[nH]c3cc2F)cn1 | 793 nM | 2 nM | 1200 nM | –
Cc1ncc(-c2ccc3[nH]nc(-c4nc5c(-c6cc(F)cc(NCCN(C)C)c6)ccnc5[nH]4)c3n2)n1C | 620 nM | 8 nM | 12.8 nM | –
CN1CCC(Nc2cc(C(=O)Nc3cc4cc(-c5cnn(C)c5)ccc4cn3)ccn2)CC1 | 65.6 nM | 2 nM | 3000 nM | –
O=C(Nc1ccc(N2CC(CO)(CO)C2)nc1)c1n[nH]c2ccc(-c3cncc(CN4CCCCC4)c3)cc12 | 1500 nM | 2 nM | 6.7 nM | –
Cc1ncc(C(=O)Nc2cc3cc(-c4cnc(C)n4C)ccc3cn2)s1 | 102 nM | 1 nM | 3000 nM | –
CN1CCC(n2cc(C(=O)Nc3ncc4ccc(-c5cncc6[nH]ccc56)cc4n3)cn2)CC1 | 1400 nM | – | 3000 nM | –
CC(C)NC(=O)c1n[nH]c2ccc(-c3cncc(NC4CCNCC4)n3)cc12 | 2400 nM | 1 nM | 2740 nM | –
Cn1cc(-c2ccc3cnc(NC(=O)c4ccc5nccnc5c4)cc3n2)cn1 | 447 nM | – | 3000 nM | –

Structure (SMILES) | EC50 [1] | EC50 [2] | EC50 [3] | Emax at 0.01 µM [4]
CCNCc1cncc(-c2ccc3[nH]nc(-c4nc5c(-c6ccccn6)nccc5[nH]4)c3c2)c1 | 2130 nM | 10 nM | 2.4 nM | –
Cc1cn(-c2cncc3[nH]c(-c4n[nH]c5ccc(-c6cncc(NC(=O)CC(C)C)c6)cc45)nc23)cn1 | 4570 nM | 1 nM | 845 nM | –
O=C(Nc1cncc(-c2ccc3[nH]nc(-c4nc5c(-c6cccnc6)cncc5[nH]4)c3c2)c1)c1ccccc1 | > 10000 nM | 6 nM | 1.9 nM | –
O=C(Nc1ccc(CN2CCCC2)cc1)c1n[nH]c2ccc(-c3cncnc3)cc12 | 1310 nM | – | 307 nM | –
O=C(Nc1ccc(CN2CCCC2)cc1)c1n[nH]c2ccc(-c3cnccn3)cc12 | 1660 nM | 4 nM | 7.1 nM | –
Cc1[nH]nc(C(=O)Nc2ccc(OC3CCN(C)CC3)nc2)c1/C=C/c1cccnc1 | > 10000 nM | 20 nM | 17.8 nM | –
NC(=O)c1n[nH]c2ccc(-c3cncc(CN4CCCCC4)c3)cc12 | 1960 nM | – | 2.3 nM | –
Cc1ccncc1-c1cc2c(-c3nc4c(-c5cc(F)cc(CNS(C)(=O)=O)c5)cncc4[nH]3)n[nH]c2cn1 | 96.6 nM | 6 nM | 604 nM | –
CN1CCC(Oc2ccc(NC(=O)c3n[nH]c4cc(F)c(-c5cnn(C)c5)cc34)cn2)CC1 | 120 nM | 1 nM | 1080 nM | –
Cc1n[nH]c2ccc(-c3cncc(N4CC(C)(N)C4)n3)cc12 | 3510 nM | 63 nM | 1610 nM | –
CC(C)CC(=O)Nc1cncc(-c2cnc3[nH]nc(-c4nc5c(-c6cccc(F)c6)cncc5[nH]4)c3c2)c1 | 0.6 nM | 2 nM | 3000 nM | –
COc1ccc(NC(=O)c2n[nH]cc2/C=C/c2cncc(CN3CCCCC3)c2)cn1 | 1450 nM | 5 nM | 3000 nM | –
CN1CCC2(CC1)CN(c1cc(C(=O)Nc3cc4cc(-c5cnn(C)c5CN5CCCCC5)cnc4cn3)ccn1)C2 | 607 nM | – | 3000 nM | –
CC(C)n1cc(C(=O)Nc2cc3cc(-c4cncn4C)ccc3cn2)cn1 | 34.8 nM | 2 nM | 1430 nM | –
COc1ccc(NC(=O)c2n[nH]c3ccc(-c4cncc(CO)c4)cc23)cn1 | 96.6 nM | 1 nM | 3000 nM | –
O=C(Nc1cc2cc(-c3cncc(NCC4(F)CNC4)n3)ccc2cn1)C1CC1 | 119 nM | – | 897 nM | –
Cc1[nH]nc(C(=O)Nc2ccc(CN3CCCC3)cc2)c1/C=C/c1cccnc1 | 2150 nM | 33 nM | 1050 nM | –
O=C(Nc1ccc(OC(CO)CO)nc1)c1n[nH]c2ccc(-c3cncc(CN4CCCCC4)c3)cc12 | 500 nM | 4 nM | 303 nM | –
Cc1ncc(NC(=O)c2n[nH]c3ccc(-c4cnn(C5CCN(C)CC5)c4)cc23)s1 | 95 nM | 3 nM | 3000 nM | –
COc1cncc(C(=O)Nc2c[nH]nc2C(=O)Nc2ccc3c(c2)CCN(C)C3)c1 | 558 nM | 8 nM | 3000 nM | –
CCC1(N)CN(c2cncc(-c3ccc4[nH]nc(C)c4c3)n2)C1 | 1730 nM | 54 nM | 3000 nM | –

From ChEMBL document CHEMBL4739717, “Methods of treating cartilage disorders through inhibition of clk and dyrk” (2020)
